The term IC50 denotes the midpoint of a concentration-inhibition curve. By inhibition is commonly meant the drop in the measured response relative to a control, in per cent. What is called Ki is the equilibrium dissociation constant of an inhibitor or competing ligand from its target. One may read the inhibition in vivo as how much of the control response was suppressed.

This note sets out measurements from ChEMBL document CHEMBL5260817, “Polyamine-based analogs and conjugates as antikinetoplastid agents” (Eur J Med Chem, 2017).

Each structure is given as a SMILES string.

Experiment [1] relates to Leishmania infantum. The experiment is described as follows: Antiprotozoal activity against Leishmania infantum MHOM/MA671TMAP263 axenic amastigotes assessed as growth inhibition measured after 5 day by MTT assay. Format: functional, organism-based. The settings on record: 120 h. For orientation: Formazan colour is commonly taken as a measure of viable cells.
In experiment [2] the test system is Leishmania infantum. The experiment can be described thus: Antiprotozoal activity against Leishmania infantum MHOM/MA671TMAP263 promastigote assessed as growth inhibition measured after 5 day by MTT assay. Format: functional, organism-based. Conditions: MHOM/MA671TMAP263, 120 h.
The subject of experiment [3] is Trypanosoma cruzi. The experiment is described as follows: Antiprotozoal activity against Trypanosoma cruzi infected in mouse Peritoneal macrophage cell assessed as growth inhibition at 0.8 uM measured after 4 days relative to control. Format: functional. The settings on record: 96 h, time 4 day.
The test system of experiment [4] is Leishmania donovani. The experiment is described as follows: Antiprotozoal activity against Leishmania donovani infected in mouse macrophage cell. In kind it is functional, organism-based.
The subject of experiment [5] is Leishmania donovani. The experiment is described as follows: Leishmanicidal activity against Leishmania donovani. Format: functional, organism-based.
Experiment [6] concerns Trypanosoma cruzi. The experiment is described as follows: Antiprotozoal activity against Trypanosoma cruzi Y strain epimastigotes. In kind it is functional, organism-based.
For experiment [7], the system named is Trypanosoma cruzi. The experiment is described as follows: Antiprotozoal activity against Trypanosoma cruzi epimastigotes. The settings on record: Trypanosoma cruzi. Format: functional, organism-based.
Experiment [8] has as its system Leishmania braziliensis. The experiment is described as follows: Antiprotozoal activity against Leishmania braziliensis promastigotes. Format: functional, organism-based.
Experiment [9] concerns Leishmania braziliensis. The experiment is described as follows: Antiprotozoal activity against Leishmania braziliensis amastigotes. Format: functional, organism-based.
The subject of experiment [10] is Leishmania chagasi. The experiment is described as follows: Antiprotozoal activity against Leishmania chagasi amastigotes. In kind it is functional, organism-based.
For experiment [11], the system named is Trypanosoma cruzi. The experiment can be described thus: Antiprotozoal activity against Trypanosoma cruzi amastigotes. Format: functional, organism-based.
The test system of experiment [12] is Trypanosoma cruzi. The experiment is described as follows: Antiprotozoal activity against Trypanosoma cruzi infected in mouse assessed as survival rate at 10 mg/kg, po administered 3 times daily on day 6 and 7 then twice daily from day 8 to 12. In kind it is functional. The settings on record: time 7 day.
For experiment [13], the system named is MRC5. The experiment is described as follows: Anticancer activity against human MRC5 cells assessed as cell growth inhibition measured after 24 hrs by MTT assay. Format: functional, cell-based. The settings on record: MRC5, 24 h.
For experiment [14], the system named is Trypanosoma cruzi. The experiment is described as follows: Antiprotozoal activity against Trypanosoma cruzi infected in mouse Peritoneal macrophage cell assessed as growth inhibition at 1.6 uM measured after 4 days relative to control. Format: functional. Conditions: 96 h, time 4 day.
Experiment [15] has as its system Trypanosoma cruzi. The experiment can be described thus: Antiprotozoal activity against Trypanosoma cruzi infected in Rhesus monkey LLC-MK2 cells. In kind it is functional, organism-based.
Experiment [16] concerns Trypanosoma cruzi. The experiment is described as follows: Antiprotozoal activity against Trypanosoma cruzi infected in human Red blood cell. In kind it is functional, organism-based. Conditions: Erythrocyte.
Experiment [17] has as its system Leishmania mexicana. The experiment can be described thus: Antiprotozoal activity against Leishmania mexicana infected in mouse J774 cells. In kind it is functional, organism-based.
Experiment [18] has as its target Trypanothione reductase (Crithidia fasciculata, UniProt P39040). The experiment can be described thus: Inhibition of Crithidia fasciculata TryR overexpressed in escherichia coli assessed as inhibition constant.
Experiment [19] is described as follows: Inhibition of Trypanosoma cruzi Fe - Superoxide dismutase.
Experiment [20] has as its system Trypanosoma cruzi. The experiment can be described thus: Antiprotozoal activity against Trypanosoma cruzi […] infected in mouse assessed as reduction in curative effect at 15 mg/kg relative to control. Format: functional.
Experiment [21] deals with Trypanosoma cruzi. The experiment can be described thus: Antiprotozoal activity against Trypanosoma cruzi […] infected in African green monkey Vero cells assessed as reduction in infection measured after 72 hrs relative to control. In kind it is functional.
Experiment [22] relates to Trypanosoma cruzi. The experiment is described as follows: Antiprotozoal activity against Trypanosoma cruzi […] measured after 72 hrs. Format: functional, organism-based.
The test system of experiment [23] is Trypanosoma brucei. The experiment can be described thus: Antitrypanosomal activity against bloodstream Trypanosoma brucei assessed as parasite growth inhibition. Format: functional, organism-based.
The nature of experiment [24]: Inhibition of TryR (unknown origin) assessed as inhibition constant. On the set-up: species or system Bacteria.
The subject of experiment [25] is Trypanosoma brucei. The experiment is described as follows: Trypanocidal activity against Trypanosoma brucei trypomastigotes. In kind it is functional, organism-based.
For experiment [26], the system named is Trypanosoma cruzi. The experiment can be described thus: Antiprotozoal activity against Trypanosoma cruzi […]. Format: functional, organism-based.
For experiment [27], the target named is Trypanothione reductase (Trypanosoma brucei brucei, UniProt P39051). The experiment can be described thus: Inhibition of Trypanosoma brucei TryR.
Experiment [28] has as its system Leishmania donovani. The experiment can be described thus: Antiprotozoal activity against Leishmania donovani MHOM/PE/84/LC26 amastigotes infected in mouse J774.2 cells measured after 72 hrs. Format: functional, organism-based. Conditions: J774.2, 72 h.
Experiment [29] deals with Leishmania infantum. The experiment is described as follows: Antiprotozoal activity against Leishmania infantum MCAN/ES/2001/UCM-10 amastigotes infected in mouse J774.2 cells measured after 72 hrs. In kind it is functional, organism-based. Conditions: J774.2, 72 h.
The subject of experiment [30] is Trypanosoma brucei rhodesiense. The experiment can be described thus: Antiprotozoal activity against Trypanosoma brucei rhodesiense. In kind it is functional, organism-based.
For experiment [31], the system named is Trypanosoma cruzi. The experiment is described as follows: Antiprotozoal activity against Trypanosoma cruzi epimastigote at 10 uM relative to control. Format: functional.
The target in experiment [32] is T1, Trypanothione reductase (Trypanosoma cruzi, UniProt P28593). The experiment is described as follows: Inhibition of Trypanosoma cruzi TryR assessed as inhibition constant.
Experiment [33] deals with Syrian golden hamster. The experiment can be described thus: In vivo antiprotozoal activity against Leishmania donovani amastigotes in hamster spleen assessed as reduction of amastigotes count measured after 7 days relative to control. In kind it is functional, Mesocricetus auratus. Conditions: time 7 day.
The target of experiment [34] is T1, Trypanothione reductase. The experiment can be described thus: Inhibition of Trypanosoma cruzi TryR expressed in escherichia coli SG5.
Experiment [35] has as its system Trypanosoma brucei brucei. The experiment can be described thus: Antiprotozoal activity against Trypanosoma brucei brucei Lab 110 EATRO strain. Format: functional, organism-based.

T1 sequence (P28593 whole entry): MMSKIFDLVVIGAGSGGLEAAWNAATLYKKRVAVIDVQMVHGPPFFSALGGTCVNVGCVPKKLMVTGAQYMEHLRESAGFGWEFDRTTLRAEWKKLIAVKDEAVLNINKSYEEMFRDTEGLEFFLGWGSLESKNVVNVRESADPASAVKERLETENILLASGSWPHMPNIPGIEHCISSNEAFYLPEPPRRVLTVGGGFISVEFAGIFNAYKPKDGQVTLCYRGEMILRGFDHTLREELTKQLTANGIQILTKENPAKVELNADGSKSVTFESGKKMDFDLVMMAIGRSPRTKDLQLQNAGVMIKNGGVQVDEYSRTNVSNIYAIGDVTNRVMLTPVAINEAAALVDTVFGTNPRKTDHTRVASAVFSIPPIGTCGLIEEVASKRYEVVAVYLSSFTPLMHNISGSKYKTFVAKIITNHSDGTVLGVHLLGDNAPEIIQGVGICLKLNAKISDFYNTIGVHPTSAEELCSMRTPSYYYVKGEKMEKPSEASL
Trypanothione reductase (Crithidia fasciculata, UniProt P39040), sequence (P39040 whole entry): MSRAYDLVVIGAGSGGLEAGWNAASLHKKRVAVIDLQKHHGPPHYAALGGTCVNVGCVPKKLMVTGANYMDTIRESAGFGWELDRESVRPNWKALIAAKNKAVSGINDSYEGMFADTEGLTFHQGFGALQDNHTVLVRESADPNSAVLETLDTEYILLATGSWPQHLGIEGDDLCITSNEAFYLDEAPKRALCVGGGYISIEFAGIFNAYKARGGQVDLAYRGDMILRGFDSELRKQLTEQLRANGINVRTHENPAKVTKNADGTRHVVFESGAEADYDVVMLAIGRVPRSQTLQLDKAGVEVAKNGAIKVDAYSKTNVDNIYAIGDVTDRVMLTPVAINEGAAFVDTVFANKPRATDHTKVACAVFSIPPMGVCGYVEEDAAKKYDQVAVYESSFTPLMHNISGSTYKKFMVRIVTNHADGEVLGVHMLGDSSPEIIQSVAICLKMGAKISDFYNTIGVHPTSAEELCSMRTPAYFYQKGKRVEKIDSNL
Trypanothione reductase (Trypanosoma brucei brucei, UniProt P39051), sequence (P39051 whole entry): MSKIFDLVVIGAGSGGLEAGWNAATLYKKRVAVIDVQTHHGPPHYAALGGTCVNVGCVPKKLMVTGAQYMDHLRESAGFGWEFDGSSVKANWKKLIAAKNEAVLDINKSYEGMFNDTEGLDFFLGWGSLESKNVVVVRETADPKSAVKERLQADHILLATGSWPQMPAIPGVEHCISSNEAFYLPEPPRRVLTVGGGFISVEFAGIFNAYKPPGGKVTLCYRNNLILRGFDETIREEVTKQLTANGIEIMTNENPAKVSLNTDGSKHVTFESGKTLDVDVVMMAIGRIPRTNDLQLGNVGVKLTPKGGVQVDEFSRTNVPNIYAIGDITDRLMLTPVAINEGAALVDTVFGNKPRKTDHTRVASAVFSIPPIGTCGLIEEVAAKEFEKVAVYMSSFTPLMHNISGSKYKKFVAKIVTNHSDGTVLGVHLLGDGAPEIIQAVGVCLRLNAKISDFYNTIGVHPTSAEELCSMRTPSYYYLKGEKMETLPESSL

Consider `O=C1c2cccc3cccc(c23)C(=O)N1CCCNCCCNCCCCNCCCNCCCN1C(=O)c2cccc3cccc(c23)C1=O`, for which the IC50 in experiment [1] amounted to 12.3 µM; in experiment [2] it was 7.56 µM.
For `Clc1ccc(Sc2ccccc2)c(CNCCCN2CCN(CCCNCc3cc(Cl)ccc3Sc3ccccc3)CC2)c1`, in experiment [3], the inhibition at 0.8 µM is 90%.
Take `CCCCCCCCCCCCCCCCNc1c(NCC[N+](C)(C)C)c(=O)c1=O`: the IC50 in experiment [4] and in experiment [5] was greater than 12 µM each time.
In experiment [6], `NCCC(=O)CN` had an IC50 of 1180 µM.
Turning to `CCCCCCCCCCNCCCCCCN`, the IC50 in [7], in [8], in experiment [9], in experiment [10] and in experiment [11] was 10 µM throughout.
Take `CN(C)CCCN1CCN(C(=O)Cc2ccccc2)CC1`: in experiment [12], the Activity amounted to 90%.
Consider `Clc1ccc(CNCCCN2CCN(CCCNCc3ccc(Cl)cc3)CC2)cc1`, for which the IC50 in [13] amounted to 4.5 µM. The inhibition at 1.6 µM in [14] came to 95%.
Take `CC(C)=CCC/C(C)=C/CNCCNC1C2CC3CC(C2)CC1C3` (stereo not given) [SQ109]: the figures for the IC50 in [15], in [16] and in [17] were 0.5 µM, 80 µM and 0.01 µM, respectively.
Turning to `NCCCNCCCCNCCCNC(=O)CCc1ccc(O)c(O)c1`, the Ki in [18] worked out at 85 µM.
As for `c1ccc(CN2CCN(Cc3ccccn3)CCN(Cc3ccccn3)CC2)nc1`, the IC50 in experiment [19] came to 18 µM; in experiment [22] it was 7 µM. For the same compound, the inhibition in vivo at 15 mg/kg in [20] turned out to be 33%. Besides, the “inhibition (INH)” value in experiment [21] worked out at 81%.
For `Nc1nc(N)nc(NCCCNCCCCCCCNCCCNCCCNc2nc(N)nc(N)n2)n1`, the IC50 in [23] came out at 24 µM.
As for `O=C1CC[C@]23/C=C/C(=O)NCCCCNCCCNC(=O)/C=C/c4ccc(c2c4)O[C@@H]3C1`, the Ki in experiment [24] came out at 114 µM. For the same compound, the IC50 in experiment [25] came to 65 µM.
`CCCCN(CCCC)CCCN` had an IC50 in experiment [26] of 4.66 µM.
With `CN1CCN(CCCN2c3ccccc3Sc3ccc(Cl)cc32)CC1` [PROCHLORPERAZINE], half-maximal inhibition in experiment [27] (IC50) was put at 7.5 µM.
`CN1CCCNc2c(c(=O)c2=O)NCCCN(C)CCCNc2c(c(=O)c2=O)NCCC1`: the IC50 in experiment [28] and in [29] was 20 µM in each case.
`CN1CCN(CCCNc2cc(Cl)ccc2Sc2ccccc2)CC1`: the IC50 in experiment [30] stood at 0.98 µM. The same compound yielded an inhibition at 10 µM in experiment [31] of 85%. In [32], the Ki stood at 27 µM.
For the compound `COC(=O)/N=C(\NCCCN1CCOCC1)NC(=O)OC`, the “inhibition (INH)” value in [33] came out at 80%.
Compound `NCCCCN(CCCN)CCCNc1cc(Cl)ccc1Sc1ccccc1` displayed an IC50 in experiment [34] of 1 µM.
As for `N=C(N)c1ccc(N2CCCN(c3ccc(C(=N)N)cc3)CC2)cc1`, half-maximal inhibition in [35] (IC50) required 0.002 µM.
